Laboratory results reported in BindingDB's records for doi:10.1021/acs.jmedchem.8b01719 (Glaxosmithkline, 2019).

How the values were obtained:
[1] = Inhibition of HCV genotype 1b wild-type NS5B RNA dependent RNA polymerase infected in human HuH7 Lunet replicon cells assessed as reduction in viral replication after 48 hrs by steady-glo luciferase reporter gene assay
[2] = Inhibition of HCV genotype 1b NS5B RNA dependent RNA polymerase C316N mutant infected in human HuH7 Lunet replicon cells assessed as reduction in viral replication after 48 hrs by steady-glo luciferase reporter gene assay
[3] = Inhibition of HCV genotype 1a NS5B RNA dependent RNA polymerase C316Y mutant transfected in human HuH7 Lunet replicon cells assessed as reduction in viral replication after 3 days by steady-glo luciferase reporter gene assay
[4] = Inhibition of HCV genotype 1a wild-type NS5B RNA dependent RNA polymerase transfected in human HuH7 Lunet replicon cells assessed as reduction in viral replication after 3 days by steady-glo luciferase reporter gene assay

CNC(=O)c1c(-c2ccc(F)cc2)oc2cc(N3C(=O)NCC3c3ccc(B(O)O)cc3)c(C3CC3)cc12 (centres undefined)
EC50 [1]: 0.25 µM | EC50 [2]: 3.2 µM

CNC(=O)c1c(-c2ccc(F)cc2)oc2cc(N3C(=O)OC[C@@H]3c3ccc(B(O)O)c(F)c3)c(C3CC3)cc12
EC50 [1]: 0.002 µM | EC50 [3]: 0.024 µM | EC50 [2]: 0.005 µM | EC50 [4]: 0.0026 µM

CNC(=O)c1c(-c2ccc(F)cc2)oc2cc(N3C(=O)OCC3c3ccc(B(O)O)cc3)c(C3CC3)cc12 (centres undefined)
EC50 [1]: 0.016 µM | EC50 [3]: 2 µM | EC50 [2]: 0.2 µM | EC50 [4]: 0.0083 µM

CNC(=O)c1c(-c2ccc(F)cc2)oc2cc(N(C(C)c3ccc4c(c3)COB4O)S(C)(=O)=O)c(C3CC3)cc12 (centres undefined)
EC50 [1]: 0.025 µM | EC50 [2]: 0.83 µM

CNC(=O)c1c(-c2ccc(F)cc2)oc2cc(-n3ncnc3-c3ccc(B(O)O)c(F)c3)c(C3CC3)cc12
EC50 [1]: 0.002 µM | EC50 [3]: 0.046 µM | EC50 [2]: 0.0063 µM | EC50 [4]: 0.0011 µM

CNC(=O)c1c(-c2ccc(F)cc2)oc2cc(-n3nnnc3-c3ccc(B(O)O)c(Cl)c3)c(C3CC3)cc12
EC50 [1]: 0.005 µM | EC50 [3]: 0.66 µM | EC50 [2]: 0.04 µM | EC50 [4]: 0.0038 µM

CNC(=O)c1c(-c2ccc(F)cc2)oc2cc(N(c3ccc(B(O)O)c(Cl)c3)S(C)(=O)=O)c(C3CC3)cc12
EC50 [1]: 0.0025 µM | EC50 [3]: 0.011 µM | EC50 [2]: 0.004 µM | EC50 [4]: 0.0012 µM

CNC(=O)c1c(-c2ccc(F)cc2)oc2cc(N(C3CCc4c(B(O)O)cccc43)S(C)(=O)=O)c(C3CC3)cc12 (centres undefined)
EC50 [1]: 0.04 µM | EC50 [3]: 1.2 µM | EC50 [2]: 0.32 µM | EC50 [4]: 0.011 µM

CNC(=O)c1c(-c2ccc(F)cc2)oc2cc(N(c3cc(Cl)c4c(c3)COB4O)S(C)(=O)=O)c(C3CC3)cc12
EC50 [1]: 0.0025 µM | EC50 [3]: 0.032 µM | EC50 [2]: 0.0025 µM | EC50 [4]: 0.0013 µM

CNC(=O)c1c(-c2ccc(F)cc2)oc2cc(N3C(=O)OCC3c3cccc(B(O)O)c3)c(C3CC3)cc12 (centres undefined)
EC50 [1]: 0.1 µM | EC50 [2]: 1.6 µM

CNC(=O)c1c(-c2ccc(F)cc2)oc2cc(N(c3cccc(B(O)O)c3)S(C)(=O)=O)c(C3CC3)cc12
EC50 [1]: 0.0063 µM | EC50 [3]: 1.9 µM | EC50 [2]: 0.063 µM | EC50 [4]: 0.0022 µM

CNC(=O)c1c(-c2ccc(F)cc2)oc2cc(N(C3CCc4cc(B(O)O)ccc43)S(C)(=O)=O)c(C3CC3)cc12 (centres undefined)
EC50 [1]: 0.05 µM | EC50 [3]: 4.4 µM | EC50 [2]: 0.5 µM | EC50 [4]: 0.0092 µM

CNC(=O)c1c(-c2ccc(F)cc2)oc2cc(N(Cc3ccc(B(O)O)cc3C(F)(F)F)S(C)(=O)=O)c(C3CC3)cc12
EC50 [1]: 0.005 µM | EC50 [2]: 0.019 µM

CNC(=O)c1c(-c2ccc(F)cc2)oc2cc(N3C(=O)CCC3c3ccc(B(O)O)cc3)c(C3CC3)cc12 (centres undefined)
EC50 [1]: 0.063 µM | EC50 [2]: 0.79 µM

CNC(=O)c1c(-c2ccc(F)cc2)oc2cc(-n3ccnc3-c3ccc(B(O)O)c(F)c3)c(C3CC3)cc12
EC50 [1]: 0.05 µM | EC50 [3]: 2 µM | EC50 [2]: 0.4 µM | EC50 [4]: 0.018 µM

CNC(=O)c1c(-c2ccc(F)cc2)oc2cc(N(c3ccc(B(O)O)c(C(F)(F)F)c3)S(C)(=O)=O)c(C3CC3)cc12
EC50 [1]: 0.004 µM | EC50 [3]: 0.017 µM | EC50 [2]: 0.0079 µM | EC50 [4]: 0.0011 µM

CNC(=O)c1c(-c2ccc(F)cc2)oc2cc(N(C3CCCc4cc(B(O)O)ccc43)S(C)(=O)=O)c(C3CC3)cc12 (centres undefined)
EC50 [1]: 0.1 µM | EC50 [3]: > 5 µM | EC50 [2]: 0.25 µM | EC50 [4]: 0.028 µM

CNC(=O)c1c(-c2ccc(F)cc2)oc2cc(-c3ncoc3-c3ccc(B(O)O)c(F)c3)c(C3CC3)cc12
EC50 [1]: 0.004 µM | EC50 [3]: 0.03 µM | EC50 [2]: 0.0063 µM | EC50 [4]: 0.0034 µM

CNC(=O)c1c(-c2ccc(F)cc2)oc2cc(N3C(=O)OC[C@@H]3c3cccc(F)c3)c(C3CC3)cc12
EC50 [1]: 1.6 µM | EC50 [3]: > 5 µM | EC50 [2]: > 5 µM | EC50 [4]: 0.29 µM

CNC(=O)c1c(-c2ccc(F)cc2)oc2cc(-c3ncnn3-c3ccc(B(O)O)c(F)c3)c(C3CC3)cc12
EC50 [1]: 0.002 µM | EC50 [3]: 0.024 µM | EC50 [2]: 0.004 µM | EC50 [4]: 0.0012 µM

CNC(=O)c1c(-c2ccc(F)cc2)oc2cc(-n3nc(C)nc3-c3ccc(B(O)O)c(F)c3)c(C3CC3)cc12
EC50 [1]: 0.013 µM | EC50 [3]: 0.63 µM | EC50 [2]: 0.4 µM | EC50 [4]: 0.006 µM

CNC(=O)c1c(-c2ccc(F)cc2)oc2cc(N(c3ccc(B(O)O)c(F)c3)S(C)(=O)=O)c(C3CC3)cc12
EC50 [1]: 0.002 µM | EC50 [3]: 0.039 µM | EC50 [2]: 0.0032 µM | EC50 [4]: 0.001 µM

CNC(=O)c1c(-c2ccc(F)cc2)oc2cc(N(c3ccc(B(O)O)cc3)S(C)(=O)=O)c(C3CC3)cc12
EC50 [1]: 0.0025 µM | EC50 [3]: 0.29 µM | EC50 [2]: 0.0063 µM | EC50 [4]: 0.0009 µM

CNC(=O)c1c(-c2ccc(F)cc2)oc2cc(-n3nccc3-c3ccc(B(O)O)c(F)c3)c(C3CC3)cc12
EC50 [1]: 0.004 µM | EC50 [3]: 0.02 µM | EC50 [2]: 0.0079 µM | EC50 [4]: 0.0023 µM

CNC(=O)c1c(-c2ccc(F)cc2)oc2cc(N3C(=O)OCCC3c3ccc(B(O)O)cc3)c(C3CC3)cc12 (centres undefined)
EC50 [1]: 0.05 µM | EC50 [3]: 0.31 µM | EC50 [2]: 0.4 µM | EC50 [4]: 0.056 µM

CNC(=O)c1c(-c2ccc(F)cc2)oc2cc(N3C(=O)OC[C@H]3c3ccc(B(O)O)c(F)c3)c(C3CC3)cc12
EC50 [1]: 0.2 µM | EC50 [3]: > 5 µM | EC50 [2]: 1.6 µM | EC50 [4]: 0.14 µM
